Like-named read-outs stand apart in the source and are kept apart here.
Legend:
[1] = target: SARS-CoV-2 main protease (M^Pro) (Severe acute respiratory syndrome coronavirus 2, UniProt P0DTD1); experiment: biochemical
MTT cytotoxicity assay = assay type: cell-based; conditions: normal human adult dermal fibroblasts (HDFa)
Description: To determine the half-maximal cell toxicity concentration (CC50) to assess the compound toxicity, we prepared stock solutions of the test compounds in 10% DMSO with ddH2O and further diluted with DMEM to the working solutions. The cytotoxic effect of the tested compounds was evaluated in normal human adult dermal fibroblasts (HDFa) (Sigma-Aldrich, Dorset, UK) using the previously reported 3-(4,5-dimethylthiazol-2-yl)-2,5-diphenyltetrazolium bromide (MTT) method with slight adjustments. Briefly, 100 µL cells/well at a density of 3 × 10^5 cells/mL were placed in 96-well plates and then incubated in 5% CO2 for 24 h at 37 °C. After 24 h, different concentrations of the test compound(s) were added to the cells in triplicate. After another 24 h, the supernatant was removed, and cells were washed with sterile 1× PBS three times. Then, 20 µL of 5 mg/mL MTT stock solution was added to each well, and the plate was incubated at 37 °C for 4 h. The produced formazan crystals were dissolved in 200 µL of acidified isopropanol (0.04 M HCl in absolute isopropanol). After that, we measured the absorbance of formazan solutions at λmax 540 nm using a BioTek Lx800 microplate reader (BioTek Instrument Ltd., Bedfordshire, UK). […]

Structure (SMILES): O=C(O)c1cc(=O)c2c(OCC(O)COc3cccc4oc(C(=O)O)cc(=O)c34)cccc2o1 [Cromoglicic acid, cromoglicic acid]
- IC50 [1]: 1.1 µM
- Ki [1]: 0.68 µM
- Potency relative to α-rubromycin (times more potent) ([1]; M^Pro inhibition, versus α-rubromycin): 4.5 times
- CC50 at 24 h (MTT cytotoxicity assay): > 100 µM

Structure (SMILES): COC(=O)c1cc2cc(CCc3cc4c(o3)C(=O)c3c(O)c(OC)cc(OC)c3C4=O)c(O)c(O)c2c(=O)o1 [α-Rubromycin, α-rubromycin]
- Ki ([1]; 0–250 µM substrate, 0–50 µM inhibitor, read-out: M^Pro inhibition constant Ki): 3.22 µM
- IC50 ([1]; fluorescence, 40 µM substrate, 4 h at 20 °C, read-out: M^Pro inhibitory activity IC50): 5.4 µM
- CC50 at 24 h (MTT cytotoxicity assay): 16.7 µM
